Laboratory results published in patent US20150259429A1, “CLUSTER OF DIFFERENTIATION 36 (CD36) AS A THERAPEUTIC TARGET FOR HIV INFECTION” (INSTITUT CURIE, priority 2012, published 2015).
Where a SMILES comes first, the peptide text is derived from it. [ ]: non-standard residue; d: D form. dTrp(2-Me) = Cc1[nH]c2ccccc2c1C[C@@H](N)C(=O)O

Tests used:
[1] = test system: HIV-1-infected macrophages; test: CD36 mAb blocking assay: p24 in supernatant and cell lysate of HIV-1-infected macrophages (ELISA); conditions: overnight exposure, comparison with CD36 ligands (FIG. 15E)
[2] = target: CD36 (human), on primary macrophages or HeLa-CD36 cells (human) (UniProt P16671); test: cell-based or functional assay
[3] = test system: CD36; conditions: cited from earlier work
[4] = test system: CD36; conditions: binding site competition; cited from earlier work
[5] = test system: HIV-1-infected primary macrophages; test: p24 Gag release by HIV-1-infected macrophages after siRNA transfection (ELISA); conditions: Tsg101 knock down (positive control) compared with CD36 silencing

Trombospondin-1: endogenous ligand of CD36
release of p24 [1]: none of the two ligands reduced

CD36-specific mAb clone CLB-IVC7 (Immunotools) (antibody)
p24 release in the culture supernatant of HIV-1-infected macrophages (ELISA), titration of the mAb [2]: 32 ng/mL

Cc1c(C)c2c(c(C)c1O)CC[C@@](C)(CCC[C@H](C)CCC[C@H](C)CCCC(C)C)O2 [α-tocopherol]
uptake of oxLDLs into macrophages [3]: reduce | expression of CD36 ([3]; macrophages): reduce

type-I Collagen: endogenous ligand of CD36, purchased from Sigma
release of p24 [1]: none of the two ligands reduced

Cc1[nH]c2ccccc2c1C[C@@H](NC(=O)[C@@H](N)Cc1cnc[nH]1)C(=O)N[C@@H](C)C(=O)N[C@@H](Cc1c[nH]c2ccccc12)C(=O)N[C@H](Cc1ccccc1)C(=O)N[C@@H](CCCCN)C(N)=O [Hexarelin, hexarelin] (H-H[dTrp(2-Me)]AW[dF]K-NH2)
CD36-mediated uptake of oxLDLs [4]: blocks

CAGUUUAUCAUUCAAGUGUAA (listed as RNA, chemistry not given here) [Tsg101]
extent of the inhibition of p24 release [5]: similar
